The target of the assay is T1, NEK7 (Homo sapiens, UniProt Q8TDX7).
T1 construct: purchased Thermo Fisher Scientific (Life Technologies) SelectScreen
Description: SelectScreen Z'LYTE. Type of assay: biochemical. The method in brief: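 Percent values come from Thermo SelectScreen profiling of NU5455, combining activity and binding assays. CSF1R was run in Z'LYTE format at Km app ATP, and CAMK1 in Adapta format with ATP listed at 10.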

Drawing on article PMC6934184, “Selective DNA-PKcs inhibition extends the therapeutic index of localized radiotherapy and chemotherapy” (The Journal of Clinical Investigation, 2019), this text covers inhibition for one compound.

T1 sequence (Q8TDX7 whole entry): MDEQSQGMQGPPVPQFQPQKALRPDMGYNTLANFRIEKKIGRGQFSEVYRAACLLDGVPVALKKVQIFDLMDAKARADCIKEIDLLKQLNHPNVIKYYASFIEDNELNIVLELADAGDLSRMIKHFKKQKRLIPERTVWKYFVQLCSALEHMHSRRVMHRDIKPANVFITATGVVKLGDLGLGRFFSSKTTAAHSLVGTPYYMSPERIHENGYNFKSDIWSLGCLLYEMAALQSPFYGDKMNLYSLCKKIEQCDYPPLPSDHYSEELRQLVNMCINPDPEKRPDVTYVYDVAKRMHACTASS

Consider `CN(C(=O)CN1CCOCC1)c1ccc2sc3c(-c4cccc5c(=O)cc(N6CC7CCC(C6)O7)oc45)cccc3c2c1` [NU5455], for which the inhibition (as a rule, the change of the read-out against control, counted positive when it falls) at 1 µM is -2.1%.
